In patent US20240207224A1, “MACROCYCLIC CHALCONE-AMIDE DERIVED ANTIVIRAL AGENTS” (priority 2022, published 2024):
pEC50, pIC50: −log10 of the molar value. Like-named read-outs stand apart in the source and are kept apart here.

Tests used:
[1] = target: SARS-CoV-2 Papain-like (PLpro) protease (Severe acute respiratory syndrome coronavirus 2, UniProt P0DTD1); experiment: biochemical
SARS-CoV-2 replicon = experiment: microbe, parasite or virus in culture; format: cell-based
SARS-CoV-2 USA-WA1/2020 = experiment: SARS-CoV-2 Cellular Assay (Vero 76); format: cell-based; details: Severe acute respiratory syndrome coronavirus 2, Vero 76, 144 h, read-out: SARS-COV-2 BSL3 EC50
Procedure: SARS-CoV-2 Cellular Assay (Vero 76): Test compounds are serially diluted using eight half-log dilutions in test medium (MEM supplemented with 2% FBS and 50 µg/mL gentamicin). Each dilution is added to 5 wells of a 96-well plate with 80-100% confluent Vero 76 cells. Three wells of each dilution are infected with virus (SARS-CoV-2 USA-WA1/2020), and two wells remain uninfected as toxicity controls. Six wells are infected and untreated as virus controls, and six wells are uninfected and untreated as cell controls. Viruses are prepared to achieve the lowest possible multiplicity of infection (MOI˜0.002) that would yield >80% cytopathic effect (CPE) at 6 days. Plates are incubated at 37±2° C., 5% CO2. For neutral red assay, on day 6 post-infection, once untreated virus control wells reach maximum CPE, plates are stained with neutral red dye for approximately 2 hours (±15 minutes). Supernatant dye is removed, and wells are rinsed with PBS, and the incorporated dye is extracted in 50:50 Sorensen citrate buffer/ethanol for >30 minutes and the optical density is read on a spectrophotometer at 540 nm. Optical densities are converted to percent of cell controls and normalized to the virus control, then the concentration of test compound required to inhibit CPE by 50% (EC50) is calculated by regression analysis. The concentration of compound that would cause 50% cell death in the absence of virus was similarly calculated (CC50). EC50 ranges are reported as follows: A<1 µM; B 1-10 µM; C 10-50 µM; D>50 µM.

[2] = ubiquitin-fluorophore substrate (Ub-R110), 30 min preincubation at RT, run in duplicate, read-out: PLpro IC50
[3] = Severe acute respiratory syndrome coronavirus 2, Huh-7, 20 h; read-out: SARS-COV-2 replicon EC50
[4] = Severe acute respiratory syndrome coronavirus 2, Huh-7, 20 h, read-out: SARS-COV-2 replicon EC50

SMILES | pIC50 [1, 2] | further results
COC(=O)/C=C/C(=O)NNC(=O)CCc1ccc2cc1C(=O)N[C@H](C)c1cc(cc3ccccc13)C=CCCCNC2=O [Example 28] | > 7.00 | –
Cc1ccc2cc1C(=O)N[C@H](C)c1cc(cc3ccccc13)C=CCCCN(C(=O)OCc1ccccc1)C2 [Example 1] | – | pIC50 [1]: < 5.00
Cc1ccc2cc1C(=O)N[C@H](C)c1cc(cc3ccccc13)CCCCCCNC2 [Example 5] | 6.00 to 7.00 | pEC50 (SARS-CoV-2 replicon; [3]): 5.00 to 6.00
Cc1ccc2cc1C(=O)N[C@H](C)c1cc(cc3ccccc13)N1CCN(CCCC(=O)NC2)CC1 [Example 15] | 5.00 to 6.00 | –
Cc1ccc2cc1C(=O)N[C@H](C)c1cc(cc3ccccc13)C=CCCN(C(=O)OCc1ccccc1)C2 [Example 3] | < 5.00 | –
COC(=O)/C=C/C(=O)NNC(=O)CCc1ccc2cc1C(=O)N[C@H](C)c1cc(cc3ccccc13)CCCCCS(=O)(=O)C2 [Example 24] | > 7.00 | pEC50 (SARS-CoV-2 replicon; [3]): 4.30 to 5.00
Cc1ccc2cc1C(=O)N[C@H](C)c1cc(cc3ccccc13)C(=O)N(C)CCCC(=O)NC2 [Example 12] | < 5.00 | –
Cc1ccc2cc1C(=O)N[C@H](C)c1cc(cc3ccccc13)C(=O)N(C)CCCN(C)C(=O)CC2 [Example 11] | < 5.00 | –
Cc1ccc2cc1C(=O)N[C@H](C)c1cc(cc3ccccc13)-c1cn(nn1)CCCCC(=O)NC2 [Example 14] | 6.00 to 7.00 | pEC50 (SARS-CoV-2 replicon; [3]): < 4.30
COC(=O)/C=C/C(=O)NNC(=O)CCc1ccc2cc1C(=O)N[C@H](C)c1cc(cc3ccccc13)CCCCCNS2(=O)=O [Example 35] | > 7.00 | –
COC(=O)/C=C/C(=O)NNC(=O)CCc1ccc2cc1C(=O)N[C@H](C)c1cc(cc3ccccc13)CCCCOCCNC2=O [Example 37] | > 7.00 | pEC50 (SARS-CoV-2 USA-WA1/2020): > 6.00; pEC50 (SARS-CoV-2 replicon; [3]): > 6.00
C[C@H]1NC(=O)c2cc(ccc2C#N)C(=O)NCCCCCc2cc1c1ccccc1c2 [Example 41] | 5.00 to 6.00 | –
COC(=O)/C=C/C(=O)NNC(=O)CCc1ccc2cc1C(=O)N[C@H](C)c1cc(cc3ccccc13)CCCCCCNC2=O [Example 26] | > 7.00 | –
Cc1ccc2cc1C(=O)N[C@H](C)c1cc(cc3ccccc13)CCCCNC2 [Example 4] | 5.00 to 6.00 | –
Cc1ccc2cc1C(=O)N[C@H](C)c1cc(cc3ccccc13)CCCCCNC2 [Example 2] | 6.00 to 7.00 | pEC50 (SARS-CoV-2 USA-WA1/2020): 5.00 to 6.00; pEC50 (SARS-CoV-2 replicon; [3]): 5.00 to 6.00
COC(=O)/C=C/C(=O)NNC(=O)CCc1ccc2cc1C(=O)N[C@H](C)c1cc(cc3ccccc13)C=CCCCCC2 [Example 19] | > 7.00 | pEC50 (SARS-CoV-2 replicon; [3]): 5.00 to 6.00
COC(=O)/C=C/C(=O)NNC(=O)CCc1ccc2cc1C(=O)N[C@H](C)c1cc(cc3ccccc13)CCCCCN(C)C2=O [Example 31] | > 7.00 | –
COC(=O)/C=C/C(=O)NNC(=O)CCc1ccc2cc1C(=O)N[C@H](C)c1cccc(c1)C=CCCCCC2 [Example 22] | 5.00 to 6.00 | –
Cc1ccc2cc1C(=O)N[C@H](C)c1cc(cc3ccccc13)-c1cn(nn1)CCCC(=O)NC2 [Example 13] | < 5.00 | –
COC(=O)/C=C/C(=O)NNC(=O)CCc1ccc2cc1C(=O)N[C@H](C)c1cc(cc3ccccc13)C=CCCCCN(C)C2=O [Example 29] | > 7.00 | –

SMILES | pIC50 [1, 2] | further results
COC(=O)/C=C/C(=O)NNC(=O)CCc1ccc2cc1C(=O)N[C@H](C)c1cc(cc3ccccc13)C=CCCCCNC2=O [Example 27] | > 7.00 | –
Cc1ccc2cc1C(=O)N[C@H](C)c1cc(cc3ccccc13)C=CCCCCC2 [Example 6] | < 5.00 | –
Cc1ccc2cc1C(=O)N[C@H](C)c1cc(cc3ccccc13)-c1cn(nn1)CCCCNC2 [Example 17] | – | pEC50 (SARS-CoV-2 replicon; [4]): 4.30 to 5.00; pIC50 [1]: 6.00 to 7.00
COC(=O)/C=C/C(=O)NNC(=O)CCc1ccc2cc1C(=O)N[C@H](C)c1cccc3ccc(cc13)CCCCNC2=O [Example 34] | 6.00 to 7.00 | –
COC(=O)/C=C/C(=O)NNC(=O)CCc1ccc2cc1C(=O)N[C@H](C)c1cc(cc3ccccc13)C=CCCCN(C)C2=O [Example 32] | > 7.00 | –
COC(=O)/C=C/C(=O)NNC(=O)CCc1ccc2cc1C(=O)N[C@H](C)c1cc(cc3ccccc13)CCCCCCS(=O)(=O)C2 [Example 23] | > 7.00 | pEC50 (SARS-CoV-2 replicon; [3]): 4.30 to 5.00
Cc1ccc2cc1C(=O)N[C@H](C)c1c(ccc3ccccc13)CCCCNC2 [Example 7] | 5.00 to 6.00 | –
COC(=O)/C=C/C(=O)NNC(=O)CCc1ccc2cc1C(=O)N[C@H](C)c1cc(cc3ccccc13)CCCCOC(=O)N2 [Example 40] | > 7.00 | pEC50 (SARS-CoV-2 USA-WA1/2020): > 6.00; pEC50 (SARS-CoV-2 replicon; [3]): 5.00 to 6.00
COC(=O)/C=C/C(=O)NNC(=O)CCc1ccc2cc1C(=O)N[C@H](C)c1cc(cc3ccccc13)CCCCCCC2 [Example 18] | 6.00 to 7.00 | pEC50 (SARS-CoV-2 USA-WA1/2020): 5.00 to 6.00; pEC50 (SARS-CoV-2 replicon; [3]): 4.30 to 5.00
COC(=O)/C=C/C(=O)N(NC(=O)CCc1ccc2cc1C(=O)N[C@H](C)c1cc(cc3ccccc13)CCCCOCCNC2=O)C(=O)/C=C/C(=O)OC [Example 38] | > 7.00 | –
COC(=O)/C=C/C(=O)NNC(=O)CCc1ccc2cc1C(=O)N[C@H](C)c1cc(cc3ccccc13)CCCCCCN(C)C2=O [Example 30] | > 7.00 | pEC50 (SARS-CoV-2 USA-WA1/2020): > 6.00; pEC50 (SARS-CoV-2 replicon; [3]): 5.00 to 6.00
C[C@H]1NC(=O)c2cc(ccc2CCC(=O)NNC(=O)OC(C)(C)C)CCCCCC=Cc2cc1c1ccccc1c2 [Example 21] | < 5.00 | –
COC(=O)/C=C/C(=O)NNC(=O)CCc1ccc2cc1C(=O)N[C@H](C)c1cc(cc3ccccc13)CCCCCNC2=O [Example 25] | – | pEC50 (SARS-CoV-2 USA-WA1/2020): > 6.00; pEC50 (SARS-CoV-2 replicon; [4]): > 6.00
C[C@H]1NC(=O)c2cc(ccc2CCC(=O)NN)CCCCCC=Cc2cc1c1ccccc1c2 [Example 20] | < 5.00 | –
Cc1ccc2cc1C(=O)N[C@H](C)c1cc(cc3ccccc13)C(=O)N1CCN(CC1)C(=O)CC2 [Example 9] | < 5.00 | –
COC(=O)/C=C/CNC(=O)C(=O)NCc1ccc2cc1C(=O)N[C@H](C)c1cc(cc3ccccc13)CCCCCNC2=O [Example 42, methyl (R,E)-4-(2-(((2-methyl-4,6-dioxo-3,7-diaza-1(1,3)-naphthalena-5(1,3)-benzenacyclododecaphane-5^6-yl)methyl)amino)-2-oxoacetamido)but-2-enoate] | < 5.00 | –
COC(=O)/C=C/C(=O)NNC(=O)CCc1ccc2cc1C(=O)N[C@H](C)c1cc(cc3c1CCCC3)CCCCCNS2(=O)=O [Example 36] | 6.00 to 7.00 | –
Cc1ccc2cc1C(=O)N[C@H](C)c1cc(cc3ccccc13)N1CCN(CCCCC(=O)NC2)CC1 [Example 16] | < 5.00 | –
Cc1ccc2cc1C(=O)N[C@H](C)c1c(ccc3ccccc13)CCCCCNC2 [Example 8] | < 5.00 | –
COC(=O)/C=C/C(=O)NNC(=O)CCc1ccc2cc1C(=O)N[C@H](C)c1cc(cc3ccccc13)CCCCCC(=O)N2 [Example 39] | > 7.00 | pEC50 (SARS-CoV-2 USA-WA1/2020): > 6.00; pEC50 (SARS-CoV-2 replicon; [3]): 5.00 to 6.00
